Source: ChEMBL document CHEMBL5465560, “Selectivity Literature for EUbOPEN Chemogenomic Library” (2024)

How the values were obtained:
[1] = target: T1, G protein-coupled receptor kinase 3 (Homo sapiens) (UniProt P35626); test: Selectivity interaction (KinomeScan (DiscoverX)) EUB0000229b ADRBK2; settings: at 10 µM
T1 sequence (whole entry): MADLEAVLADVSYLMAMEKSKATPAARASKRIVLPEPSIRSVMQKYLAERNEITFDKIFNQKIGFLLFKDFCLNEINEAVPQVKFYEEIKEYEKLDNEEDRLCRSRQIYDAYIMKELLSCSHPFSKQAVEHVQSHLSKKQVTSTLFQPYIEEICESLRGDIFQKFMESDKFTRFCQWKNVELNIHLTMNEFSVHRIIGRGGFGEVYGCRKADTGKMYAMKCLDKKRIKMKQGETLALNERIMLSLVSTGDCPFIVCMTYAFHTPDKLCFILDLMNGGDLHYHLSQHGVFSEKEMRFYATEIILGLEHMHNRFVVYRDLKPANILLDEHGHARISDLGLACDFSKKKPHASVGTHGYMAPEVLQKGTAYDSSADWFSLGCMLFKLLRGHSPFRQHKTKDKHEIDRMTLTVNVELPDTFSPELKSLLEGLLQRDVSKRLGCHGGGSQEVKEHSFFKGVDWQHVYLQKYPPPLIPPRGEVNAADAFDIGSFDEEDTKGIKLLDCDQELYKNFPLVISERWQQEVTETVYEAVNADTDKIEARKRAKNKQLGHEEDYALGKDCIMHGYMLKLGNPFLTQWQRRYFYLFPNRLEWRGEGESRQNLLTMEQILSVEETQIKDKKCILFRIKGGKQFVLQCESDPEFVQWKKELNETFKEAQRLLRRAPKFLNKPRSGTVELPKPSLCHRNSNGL

[2] = target: T2, Phosphatidylinositol 5-phosphate 4-kinase type-2 gamma (Homo sapiens) (UniProt Q8TBX8); test: Selectivity interaction (KinomeScan (DiscoverX)) EUB0000092b PIP4K2C; settings: at 10 µM
T2 sequence (whole entry): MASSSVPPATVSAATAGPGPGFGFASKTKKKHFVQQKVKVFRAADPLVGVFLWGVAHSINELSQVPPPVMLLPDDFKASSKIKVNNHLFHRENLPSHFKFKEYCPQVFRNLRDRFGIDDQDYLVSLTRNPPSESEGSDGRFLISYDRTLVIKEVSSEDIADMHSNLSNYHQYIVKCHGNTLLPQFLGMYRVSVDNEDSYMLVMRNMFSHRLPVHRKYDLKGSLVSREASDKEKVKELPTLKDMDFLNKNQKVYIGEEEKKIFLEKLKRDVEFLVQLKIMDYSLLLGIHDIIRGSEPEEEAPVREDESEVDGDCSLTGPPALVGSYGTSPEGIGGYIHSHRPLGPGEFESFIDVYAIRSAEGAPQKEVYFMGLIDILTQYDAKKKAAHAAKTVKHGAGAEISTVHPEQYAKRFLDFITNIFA

[3] = target: Tyrosine-protein kinase JAK1 (Homo sapiens, UniProt P23458); test: Selectivity interaction (KinomeScan (DiscoverX)) EUB0000666a JAK1; settings: at 10 µM
[4] = target: T3, Serine/threonine-protein kinase Nek3 (Homo sapiens) (UniProt P51956); test: Selectivity interaction (KinomeScan (DiscoverX)) EUB0000666a NEK3; settings: at 10 µM
T3 sequence (whole entry): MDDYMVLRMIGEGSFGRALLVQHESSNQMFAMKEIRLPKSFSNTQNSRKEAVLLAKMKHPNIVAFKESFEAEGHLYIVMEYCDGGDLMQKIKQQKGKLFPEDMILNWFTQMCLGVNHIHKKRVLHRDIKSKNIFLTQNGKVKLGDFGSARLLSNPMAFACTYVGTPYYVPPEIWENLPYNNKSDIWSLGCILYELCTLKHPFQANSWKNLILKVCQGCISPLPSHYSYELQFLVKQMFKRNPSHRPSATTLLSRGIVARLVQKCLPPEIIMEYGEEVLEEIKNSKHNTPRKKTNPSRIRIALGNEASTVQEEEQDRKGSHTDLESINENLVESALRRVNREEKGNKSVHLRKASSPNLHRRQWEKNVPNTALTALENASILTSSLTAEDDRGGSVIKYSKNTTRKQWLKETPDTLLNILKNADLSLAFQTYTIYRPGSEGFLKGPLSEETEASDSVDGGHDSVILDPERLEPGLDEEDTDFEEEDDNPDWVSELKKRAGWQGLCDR

[5] = target: Serine/threonine-protein kinase SIK3 (Homo sapiens) (UniProt Q9Y2K2); settings: at 10 µM
[6] = target: Serine-protein kinase ATM (Homo sapiens) (UniProt Q13315); test: Selectivity interaction (ActivX KiNativ screen (kinase selectivity in THP-1 cell lysates)) EUB0000639a ATM; assay type: subcellular; settings: lysate
Serine-protein kinase ATM (Homo sapiens), sequence (Q13315 whole entry): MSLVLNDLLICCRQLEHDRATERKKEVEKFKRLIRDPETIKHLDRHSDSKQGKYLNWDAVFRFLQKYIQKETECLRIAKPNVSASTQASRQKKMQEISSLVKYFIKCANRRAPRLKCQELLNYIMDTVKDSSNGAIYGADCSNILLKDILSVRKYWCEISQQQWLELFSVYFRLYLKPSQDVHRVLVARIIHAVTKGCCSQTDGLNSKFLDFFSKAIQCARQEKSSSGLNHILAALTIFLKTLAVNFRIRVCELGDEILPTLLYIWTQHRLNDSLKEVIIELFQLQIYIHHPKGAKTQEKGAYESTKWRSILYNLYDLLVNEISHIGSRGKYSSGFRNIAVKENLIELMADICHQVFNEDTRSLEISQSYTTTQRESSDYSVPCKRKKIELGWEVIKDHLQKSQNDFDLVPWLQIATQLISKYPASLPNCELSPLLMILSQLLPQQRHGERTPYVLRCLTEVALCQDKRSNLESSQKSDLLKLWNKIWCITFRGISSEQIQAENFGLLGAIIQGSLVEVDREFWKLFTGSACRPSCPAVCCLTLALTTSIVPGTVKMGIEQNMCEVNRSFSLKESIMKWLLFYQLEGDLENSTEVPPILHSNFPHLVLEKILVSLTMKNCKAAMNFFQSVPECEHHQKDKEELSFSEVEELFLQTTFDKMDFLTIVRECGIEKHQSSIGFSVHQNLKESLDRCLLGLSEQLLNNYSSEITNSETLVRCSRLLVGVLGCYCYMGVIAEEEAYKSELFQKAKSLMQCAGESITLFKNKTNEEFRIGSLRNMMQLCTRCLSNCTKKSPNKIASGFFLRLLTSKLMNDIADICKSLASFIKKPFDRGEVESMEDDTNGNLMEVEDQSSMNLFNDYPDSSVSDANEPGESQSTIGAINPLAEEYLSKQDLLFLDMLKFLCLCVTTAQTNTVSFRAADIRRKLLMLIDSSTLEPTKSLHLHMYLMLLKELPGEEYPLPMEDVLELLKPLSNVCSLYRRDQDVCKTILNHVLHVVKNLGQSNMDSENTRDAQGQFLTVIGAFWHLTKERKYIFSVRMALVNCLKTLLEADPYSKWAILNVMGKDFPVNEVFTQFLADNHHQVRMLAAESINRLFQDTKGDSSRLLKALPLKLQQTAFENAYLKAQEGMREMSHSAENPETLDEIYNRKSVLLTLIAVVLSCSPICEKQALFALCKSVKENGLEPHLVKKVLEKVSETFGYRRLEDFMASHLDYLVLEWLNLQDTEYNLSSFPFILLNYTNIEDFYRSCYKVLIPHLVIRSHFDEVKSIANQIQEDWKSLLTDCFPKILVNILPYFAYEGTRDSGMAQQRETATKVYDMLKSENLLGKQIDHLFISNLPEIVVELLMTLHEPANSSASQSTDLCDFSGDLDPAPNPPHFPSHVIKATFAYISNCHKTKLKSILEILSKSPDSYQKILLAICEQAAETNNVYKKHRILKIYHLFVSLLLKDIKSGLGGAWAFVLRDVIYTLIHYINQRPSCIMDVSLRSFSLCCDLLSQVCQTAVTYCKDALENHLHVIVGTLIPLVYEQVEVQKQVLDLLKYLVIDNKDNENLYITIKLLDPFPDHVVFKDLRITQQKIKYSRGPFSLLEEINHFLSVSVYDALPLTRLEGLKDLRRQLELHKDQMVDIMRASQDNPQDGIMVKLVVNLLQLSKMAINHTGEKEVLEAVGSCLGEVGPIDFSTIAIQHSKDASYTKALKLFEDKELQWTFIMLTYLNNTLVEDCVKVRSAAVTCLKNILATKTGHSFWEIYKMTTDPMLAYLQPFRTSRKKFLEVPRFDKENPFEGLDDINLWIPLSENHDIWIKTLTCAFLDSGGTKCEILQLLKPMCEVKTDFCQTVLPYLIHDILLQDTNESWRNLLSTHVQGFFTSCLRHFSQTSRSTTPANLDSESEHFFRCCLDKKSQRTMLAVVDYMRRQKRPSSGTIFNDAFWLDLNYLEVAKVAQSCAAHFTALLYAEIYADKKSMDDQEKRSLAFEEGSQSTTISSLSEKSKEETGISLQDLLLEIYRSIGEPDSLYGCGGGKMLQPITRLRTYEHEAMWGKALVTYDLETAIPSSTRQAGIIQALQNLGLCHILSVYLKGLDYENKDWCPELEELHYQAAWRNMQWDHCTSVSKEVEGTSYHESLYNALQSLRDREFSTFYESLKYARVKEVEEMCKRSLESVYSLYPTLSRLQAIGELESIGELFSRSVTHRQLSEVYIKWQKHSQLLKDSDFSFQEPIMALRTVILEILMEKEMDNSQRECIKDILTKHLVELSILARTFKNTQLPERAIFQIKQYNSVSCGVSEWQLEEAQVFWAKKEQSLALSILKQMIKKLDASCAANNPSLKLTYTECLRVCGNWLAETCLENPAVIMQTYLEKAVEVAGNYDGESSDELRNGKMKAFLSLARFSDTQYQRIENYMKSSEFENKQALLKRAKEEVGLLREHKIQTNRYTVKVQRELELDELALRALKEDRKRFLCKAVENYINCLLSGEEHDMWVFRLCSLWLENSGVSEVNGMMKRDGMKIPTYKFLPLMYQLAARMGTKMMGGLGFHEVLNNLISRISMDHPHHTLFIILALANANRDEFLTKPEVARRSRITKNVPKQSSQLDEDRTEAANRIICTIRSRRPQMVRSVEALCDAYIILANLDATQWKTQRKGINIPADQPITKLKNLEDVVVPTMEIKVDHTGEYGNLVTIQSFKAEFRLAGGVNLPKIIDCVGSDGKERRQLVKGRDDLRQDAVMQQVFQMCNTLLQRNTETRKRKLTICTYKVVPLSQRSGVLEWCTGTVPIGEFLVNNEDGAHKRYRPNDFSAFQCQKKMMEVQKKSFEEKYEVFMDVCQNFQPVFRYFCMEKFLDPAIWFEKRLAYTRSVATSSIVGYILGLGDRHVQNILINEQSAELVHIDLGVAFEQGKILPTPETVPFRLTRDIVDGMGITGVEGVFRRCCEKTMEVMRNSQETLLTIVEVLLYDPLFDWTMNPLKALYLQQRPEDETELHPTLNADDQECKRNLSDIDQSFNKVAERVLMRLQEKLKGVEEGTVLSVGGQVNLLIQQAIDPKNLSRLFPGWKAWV

[7] = target: Beta-2 adrenergic receptor (Homo sapiens, UniProt P07550); test: Selectivity interaction (Panel of kinases, GPCRs, ion channels and transporters (enzymatic assay)) EUB0000223bCl ADRB2
Beta-2 adrenergic receptor, sequence (P07550 whole entry, looked up): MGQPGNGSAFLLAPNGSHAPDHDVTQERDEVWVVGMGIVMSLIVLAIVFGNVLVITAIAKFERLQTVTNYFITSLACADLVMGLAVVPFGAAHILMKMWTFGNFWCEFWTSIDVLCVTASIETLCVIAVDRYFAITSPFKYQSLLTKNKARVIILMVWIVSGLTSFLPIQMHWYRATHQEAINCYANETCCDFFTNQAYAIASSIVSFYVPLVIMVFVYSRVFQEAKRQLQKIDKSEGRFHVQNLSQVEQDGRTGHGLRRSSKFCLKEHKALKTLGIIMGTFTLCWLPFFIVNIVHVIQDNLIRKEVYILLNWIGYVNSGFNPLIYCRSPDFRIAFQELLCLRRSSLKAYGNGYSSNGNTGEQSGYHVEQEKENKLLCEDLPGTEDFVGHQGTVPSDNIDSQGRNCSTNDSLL

[8] = target: Mitogen-activated protein kinase kinase kinase kinase 1 (Homo sapiens) (UniProt Q92918); test: Selectivity interaction (KinomeScan (DiscoverX)) EUB0000618a MAP4K1; settings: at 10 µM
Mitogen-activated protein kinase kinase kinase kinase 1 (Homo sapiens), sequence (Q92918 whole entry, looked up): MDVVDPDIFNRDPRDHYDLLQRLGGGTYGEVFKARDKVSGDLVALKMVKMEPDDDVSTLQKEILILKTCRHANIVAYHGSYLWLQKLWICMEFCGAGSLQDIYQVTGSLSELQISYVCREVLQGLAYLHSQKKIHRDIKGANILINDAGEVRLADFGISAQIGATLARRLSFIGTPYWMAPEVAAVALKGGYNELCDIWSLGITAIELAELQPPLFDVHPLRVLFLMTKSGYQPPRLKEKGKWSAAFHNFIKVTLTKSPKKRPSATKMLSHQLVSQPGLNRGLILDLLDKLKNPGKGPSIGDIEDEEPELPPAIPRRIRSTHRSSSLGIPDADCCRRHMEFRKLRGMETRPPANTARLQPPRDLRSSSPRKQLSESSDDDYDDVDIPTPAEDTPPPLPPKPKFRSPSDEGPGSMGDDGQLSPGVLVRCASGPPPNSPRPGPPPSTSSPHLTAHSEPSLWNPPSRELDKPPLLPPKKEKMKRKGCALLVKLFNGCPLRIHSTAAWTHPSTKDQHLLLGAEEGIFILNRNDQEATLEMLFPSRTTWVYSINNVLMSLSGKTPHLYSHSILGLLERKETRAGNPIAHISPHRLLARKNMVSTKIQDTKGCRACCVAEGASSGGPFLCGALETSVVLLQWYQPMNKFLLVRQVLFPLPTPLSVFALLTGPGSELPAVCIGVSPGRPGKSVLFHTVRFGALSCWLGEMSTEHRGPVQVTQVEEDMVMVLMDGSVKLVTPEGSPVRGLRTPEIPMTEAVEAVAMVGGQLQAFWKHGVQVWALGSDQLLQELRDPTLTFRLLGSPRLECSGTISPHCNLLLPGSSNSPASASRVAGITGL

COc1cc(N(C)c2ccnc3ccc(C(F)(F)F)cc23)cc(OC)c1OC
% binding [1]: 43%

CCC(=O)N1CCN(c2ccc(-n3c(=O)ccc4cnc5ccc(-c6cnc7ccccc7c6)cc5c43)cc2C(F)(F)F)CC1
% of control [2]: 58%

O=C(NOC[C@H](O)CO)c1ccc(F)c(F)c1Nc1ccc(I)cc1F
% of control [3]: 100% | % of control [4]: 100%

Cc1cc([C@@H](C)Nc2ccccc2C(=O)O)c2nc(N3CCOCC3)cc(=O)n2c1 [AZD-6482]
% of control [5]: 95%

CC[C@@H]1[C@H](F)C(=O)N[C@@H]1COc1nccc2cc(C(N)=O)c(OC)cc12 [ZIMLOVISERTIB]
% of inhibition ([6]; at 0.01 µM): 12.7% | % of inhibition ([6]; at 0.04 µM): -2.1% | % of inhibition ([6]; at 0.2 µM): -2.2% | % of inhibition ([6]; at 1 µM): -15.7% | % of inhibition ([6]; at 5 µM): 24%

COc1cc(C(=O)N2CC[C@@H](O)[C@@H](N)C2)cc2nc(-c3cc4ccccc4n3CC3CC3)n(C)c12
pXC50 [7]: < 4.5 M

O[C@H]1CC[C@H](Nc2ncc3nc(Nc4c(F)cc(F)cc4F)n([C@H]4CCOC4)c3n2)CC1
% of control [8]: 83%
